Target: T1, WNK2 (Homo sapiens, UniProt Q9Y3S1)
T1 construct: purchased Thermo Fisher Scientific (Life Technologies) SelectScreen
Assay: SelectScreen LanthaScreen
Format: binding
Conditions: read-out: % displacement
Summary of the method: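 SelectScreen broad panel; activity (Z'LYTE, Adapta) plus binding formats. ATP: Km app for CSF1R Z'LYTE; 10 for CAMK1 Adapta. Readout = % per kinase.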

T1 sequence (Q9Y3S1 whole entry): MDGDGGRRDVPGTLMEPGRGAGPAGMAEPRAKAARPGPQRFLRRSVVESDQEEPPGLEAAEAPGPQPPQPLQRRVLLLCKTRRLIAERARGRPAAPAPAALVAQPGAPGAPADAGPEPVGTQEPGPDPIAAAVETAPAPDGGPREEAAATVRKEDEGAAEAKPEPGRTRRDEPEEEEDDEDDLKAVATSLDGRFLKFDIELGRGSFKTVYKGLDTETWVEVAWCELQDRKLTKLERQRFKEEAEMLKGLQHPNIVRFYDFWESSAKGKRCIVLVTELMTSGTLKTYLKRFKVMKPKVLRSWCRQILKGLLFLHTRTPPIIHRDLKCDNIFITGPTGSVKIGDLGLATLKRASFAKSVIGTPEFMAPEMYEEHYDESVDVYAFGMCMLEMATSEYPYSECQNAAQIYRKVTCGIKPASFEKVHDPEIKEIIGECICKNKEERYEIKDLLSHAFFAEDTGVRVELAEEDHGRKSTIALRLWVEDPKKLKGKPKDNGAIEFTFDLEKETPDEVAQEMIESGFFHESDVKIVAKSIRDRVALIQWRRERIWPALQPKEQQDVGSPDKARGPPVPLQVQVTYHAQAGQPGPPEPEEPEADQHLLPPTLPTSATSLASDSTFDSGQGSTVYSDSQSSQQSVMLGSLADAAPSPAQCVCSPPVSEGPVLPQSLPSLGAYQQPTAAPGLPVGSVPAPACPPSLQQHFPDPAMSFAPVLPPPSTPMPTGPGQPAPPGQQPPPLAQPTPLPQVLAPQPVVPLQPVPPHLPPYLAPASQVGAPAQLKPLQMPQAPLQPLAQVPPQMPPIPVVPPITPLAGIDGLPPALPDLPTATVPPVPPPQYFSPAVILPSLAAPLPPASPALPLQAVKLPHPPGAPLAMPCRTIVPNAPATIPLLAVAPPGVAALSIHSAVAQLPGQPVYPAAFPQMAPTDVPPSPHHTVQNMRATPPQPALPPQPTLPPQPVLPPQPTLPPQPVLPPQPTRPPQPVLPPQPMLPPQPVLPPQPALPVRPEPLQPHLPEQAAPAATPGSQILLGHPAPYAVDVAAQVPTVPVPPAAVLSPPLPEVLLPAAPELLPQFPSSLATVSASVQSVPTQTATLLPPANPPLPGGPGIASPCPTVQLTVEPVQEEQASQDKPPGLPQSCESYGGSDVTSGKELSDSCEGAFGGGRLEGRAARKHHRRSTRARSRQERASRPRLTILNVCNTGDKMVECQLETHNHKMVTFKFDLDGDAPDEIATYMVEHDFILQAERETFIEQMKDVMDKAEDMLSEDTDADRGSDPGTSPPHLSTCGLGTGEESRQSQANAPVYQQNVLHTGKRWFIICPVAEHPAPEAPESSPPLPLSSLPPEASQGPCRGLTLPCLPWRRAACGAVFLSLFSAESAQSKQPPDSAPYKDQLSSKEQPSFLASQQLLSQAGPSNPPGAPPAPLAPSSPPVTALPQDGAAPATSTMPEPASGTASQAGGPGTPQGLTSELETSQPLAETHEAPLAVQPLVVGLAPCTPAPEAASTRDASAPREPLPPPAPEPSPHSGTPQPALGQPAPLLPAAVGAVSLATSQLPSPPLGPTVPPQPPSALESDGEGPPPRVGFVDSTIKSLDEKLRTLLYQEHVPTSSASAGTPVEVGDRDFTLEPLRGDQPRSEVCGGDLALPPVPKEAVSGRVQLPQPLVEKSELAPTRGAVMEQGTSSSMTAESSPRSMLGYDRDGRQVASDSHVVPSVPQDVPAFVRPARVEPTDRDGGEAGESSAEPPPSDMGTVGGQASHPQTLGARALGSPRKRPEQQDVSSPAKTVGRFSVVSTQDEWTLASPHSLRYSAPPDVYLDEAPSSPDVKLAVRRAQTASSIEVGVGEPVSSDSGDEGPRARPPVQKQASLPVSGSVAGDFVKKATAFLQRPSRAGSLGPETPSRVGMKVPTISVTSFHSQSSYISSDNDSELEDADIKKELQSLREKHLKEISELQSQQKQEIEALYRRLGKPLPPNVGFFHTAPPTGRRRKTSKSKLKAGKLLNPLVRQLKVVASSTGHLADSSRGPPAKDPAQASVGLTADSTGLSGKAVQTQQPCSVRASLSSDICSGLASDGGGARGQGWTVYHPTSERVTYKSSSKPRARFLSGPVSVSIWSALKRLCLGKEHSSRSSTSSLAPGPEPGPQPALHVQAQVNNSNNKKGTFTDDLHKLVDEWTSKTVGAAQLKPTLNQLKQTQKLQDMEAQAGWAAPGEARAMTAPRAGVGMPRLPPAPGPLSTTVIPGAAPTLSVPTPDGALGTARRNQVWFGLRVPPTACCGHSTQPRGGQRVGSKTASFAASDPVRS

`CN(C(=O)CN1CCOCC1)c1ccc2sc3c(-c4cccc5c(=O)cc(N6CC7CCC(C6)O7)oc45)cccc3c2c1` [NU5455] gave an inhibition at 1 µM of -2.5%.

Source: publication PMC6934184, “Selective DNA-PKcs inhibition extends the therapeutic index of localized radiotherapy and chemotherapy” (The Journal of Clinical Investigation, 2019)
